In US6150412A, “Catechol derivatives” (Orion-yhtyma Oy, priority 1995, dated 2000) one finds concentration and IC50 data, which are given here for 7 molecules.

The structures appear in SMILES notation. Read-outs that look alike come from different tables or passages of the source.

Data set [1] is described as follows: Determination of plasma concentrations after oral dosing. It counts as in vivo. The note with it: rat, male Wistar rats, orally dosed 10 mg/kg, read-out: Plasma c; for concentration at 0.5 h: t = 30 min; for concentration at 5 h: t = 5 h. As to the method: Male Wistar rats (220-280 g) were orally dosed (10 mg/kg) with test compounds. Control animals received the vehicle only. Blood samples were drawn from the tail artery 0.5 and 5 hours after the treatment and collected into pre-cooled Li-heparinized tubes. The plasma was separated by centrifugation (11000 g, 5 min) and stored at -80° C. until analysis.
The analytes were extracted from 200 μl of acidified plasma (100 μl of 1 M HCI) with 5 ml of ethyl acetate. The organic phase (4 ml) was evaporated to dryness under a stream of nitrogen at 40° C. The residue was redissolved in 200 μl of dimethylsulphoxide and 30 μl of it was analyzed by HPLC with amperometric detection. The electrode potential was +700 mV.

The target of data set [2] is T1, S-COMT enzyme (Homo sapiens, UniProt P21964).
T1 sequence (P21964 1-221 isoform P21964-2): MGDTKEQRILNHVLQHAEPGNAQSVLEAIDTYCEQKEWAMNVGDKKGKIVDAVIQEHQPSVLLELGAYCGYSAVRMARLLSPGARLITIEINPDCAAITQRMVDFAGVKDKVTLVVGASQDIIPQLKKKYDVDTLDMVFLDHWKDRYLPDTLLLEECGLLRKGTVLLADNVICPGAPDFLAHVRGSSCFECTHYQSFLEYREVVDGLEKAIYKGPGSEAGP
The data set is described as follows: Determination of IC50 values, COMT inhibition (dopamine methylation, HPLC). The class given is biochemical. The conditions noted are these: S-COMT enzyme (about 30 nM), 0.05 mM AdoMet, 3 mM dopamine, 5 min preincubation, 15 min at 37° C., pH 7.4. As to the method: The studied inhibitors were first dissolved into 0.1 M NaOH solution and then diluted with distilled water to 0.5 mM inhibitor concentration. From this stock solution the inhibitor concentrations were adjusted by diluting the desired amounts of stock solution with 0.05 M phosphate buffer, pH 7.4. The studied sample solutions were prepared into the Eppendorf tubes. The final concentrations of the studied samples were; -100 mM phosphate buffer, 5 mM MgCl2, 0.05 mM AdoMet, S-COMT enzyme (about 30 nM) and the inhibitor.
The samples were mixed with Vortex, and incubated for 5 min at 37° C. The reactions were initiated with 3 mM dopamine and carried on for 15 min at 37° C. The reactions were stopped with 4 M perchloric acid and stabilized afterwards for 10 min in ice bath. The sample solutions were centrifuged for 10 min, and the methylated products, 3-methyldopamineand 4-methyidopamine, were analysed with HPLC.

For the molecule `CC(=O)C(=Cc1cc(O)c(O)c([N+](=O)[O-])c1)C(C)=O` [Comparison compound 2, 2[(3,4-dihydroxy-5-nitrophenyl)methylene]-2,4-pentanedione, reference compound], in data set [1] (plasma), the concentration at 0.5 h turned out to be 530 ng/mL and the concentration at 5 h was below 25 ng/mL.

`N#Cc1cc(O)c(O)c(C#N)c1CCCCC(=O)O` [Example 16, 5-(3,4-DIHYDROXY-2,6-DICYANOPHENYL)PENTANOIC ACID]: in data set [1] (plasma), the concentration at 0.5 h stood at 2000 ng/mL and the concentration at 5 h was 150 ng/mL. Moreover, it took 15 nM to reach half-maximal inhibition in data set [2] (IC50).

For the molecule `O=Cc1cc(O)c(O)c(C=O)c1CCCCC(=O)O` [Example 14, 5-(2.6-DIFORMYL-3,4-DIHYDROXYPHENYL)PENTANOIC ACID], inhibition in data set [2] was half-maximal at 30 nM (IC50).

`O=Cc1cc(O)c(O)c(C=O)c1CCC(=O)O` [Example 15, 3-(2,6-DIFORMYL-3,4-DIHYDROXYPHENYL)PROPANOIC ACID]: half-maximal inhibition in data set [2] (IC50) required 60 nM.

Take `N#Cc1cc(O)c(O)c(C#N)c1CCC(=O)O` [Example 17, 3-(2,6-DICYANO-3,4-DIHYDROXYPHENYL)PROPANOIC ACID]: it took 20 nM to reach half-maximal inhibition in data set [2] (IC50).

With `O=C(O)CCCCc1c([N+](=O)[O-])cc(O)c(O)c1[N+](=O)[O-]` [Example 13, 5-(3,4-DIHYDROXY-2,6-DINITROPHENYL)-PENTANOIC ACID], the 50% inhibitory concentration (IC50) in data set [2] was 20 nM.

In the case of `O=C(O)CCc1c([N+](=O)[O-])cc(O)c(O)c1[N+](=O)[O-]` [Example 11, 3-(3,4-DIHYDROXY-2,6-DINITROPHENYL)-PROPANOIC ACID], in data set [1] (in vivo), the concentration at 0.5 h was 2100 ng/mL and the concentration at 5 h was 490 ng/mL. This molecule also gave an IC50 in data set [2] of 30 nM.

Broadly, the IC50 is the concentration needed to halve the response being measured. Read a low IC50 as inhibition by little substance.
